Test results reported in patent US20260092061A1, “COMPOUNDS FOR TARGETED PROTEIN DEGRADATION” (Amphista Therapeutics Limited, priority 2022, published 2026).
Like-named read-outs stand apart in the source and are kept apart here.

What was measured:
Type in all cases: cell-based
BRD4 = molecular target: T1, BRD4 (Homo sapiens, UniProt O60885); assay: BRD4 degradation, HiBiT-BRD4 HEK293 CRISPR CPM cells, NanoGlo Lytic Endpoint assay (Assay Protocol 1); details: HEK293; Table 3; assay 1; 1 μM compound at 5 h of treatment
T1 construct: HiBiT-BRD4 HEK293 CRISPR CPM (Promega CS302312); host or cells: HEK293, CRISPR-edited (HiBiT at the BRD4 locus)

BRD9 [1] = molecular target: T2, BRD9 (Homo sapiens, UniProt Q9H8M2); assay: BRD9 degradation, HiBiT-BRD9 KI HEK293 (LgBiT) cells, NanoGlo Lytic Endpoint assay (Assay Protocol 1); details: Table 3; assay 1; 5 h of treatment
T2 sequence (Q9H8M2 1-597): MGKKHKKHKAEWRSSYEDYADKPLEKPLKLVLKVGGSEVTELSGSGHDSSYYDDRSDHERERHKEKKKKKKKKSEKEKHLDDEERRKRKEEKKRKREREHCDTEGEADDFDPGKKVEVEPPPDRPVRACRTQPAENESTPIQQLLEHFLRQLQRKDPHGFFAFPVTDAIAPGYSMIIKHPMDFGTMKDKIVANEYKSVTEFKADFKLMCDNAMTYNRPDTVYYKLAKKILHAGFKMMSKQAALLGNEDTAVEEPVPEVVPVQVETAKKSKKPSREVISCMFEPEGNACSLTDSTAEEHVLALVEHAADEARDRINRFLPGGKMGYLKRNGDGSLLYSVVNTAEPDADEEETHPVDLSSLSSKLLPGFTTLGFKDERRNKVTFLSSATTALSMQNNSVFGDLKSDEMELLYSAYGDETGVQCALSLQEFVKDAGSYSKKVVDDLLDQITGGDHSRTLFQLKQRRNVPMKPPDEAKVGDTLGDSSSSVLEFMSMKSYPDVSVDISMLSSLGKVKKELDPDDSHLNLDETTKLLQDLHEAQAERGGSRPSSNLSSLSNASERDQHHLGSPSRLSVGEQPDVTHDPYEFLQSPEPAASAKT

BRD9 [2] = molecular target: T2, BRD9; assay: as above; details: for Dmax at 1 µM: HEK293; for DC50: 6 h of treatment, read-out: Assay 1 DC50
Method in brief: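 HiBiT-tagged BRD9 knock-in HEK293 (LgBiT) cells exposed to compounds for 6 h at 37 °C, 5% CO2. Residual BRD9 measured by HiBiT lytic luminescence. % BRD9 remaining normalised to DMSO-treated cells (high) and no-cell wells (low).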

[3] = Table 2, BRD9 degradation, Assay Protocol 1, 1 μM compound at 6 h of treatment, read-out: Assay 1 Dmax
[4] = Table 3, assay 1, 1 μM compound at 5 h of treatment, read-out: BRD9 Dmax (%)
[5] = Table 2, BRD9 degradation, Assay Protocol 1

SMILES | Dmax (BRD4) | DC50 (BRD9 [1]) | Dmax at 1 µM (BRD9 [2]; [3]) | Dmax at 1 µM (BRD9 [2]; [4]) | DC50 (BRD9 [2]; [5])
COc1cc(-c2cn(C)c(=O)c(C)c2C)cc(OC)c1CN1CC2CC(C1)N2Cc1cccc2c1CCN(C(=O)/C(C#N)=C/C(C)(C)C)C2C (mixture of isomers) [Compound A71, (E/Z)-2-(5-((3-(2,6-dimethoxy-4-(1,4,5-trimethyl-6-oxo-1,6-dihydropyridin-3-yl)benzyl)-3,6-diazabicyclo[3.1.1]heptan-6-yl)methyl)-1-methyl-1,2,3,4-tetrahydroisoquinoline-2-carbonyl)-4,4-dimethylpent-2-enenitrile] | 25 to 40% | 1.25 to 10 nM | 70 to 75% | 70 to 75% | 1.25 to 10 nM
COc1cc(-c2cn(C)c(=O)c(C)c2C)cc(OC)c1CN1CCCN(Cc2cccc3c2CCN(C(=O)/C(C#N)=C/C(C)(C)C)C3C)CC1 (mixture of isomers) [Compound A72, (E/Z)-2-(5-((4-(2,6-dimethoxy-4-(1,4,5-trimethyl-6-oxo-1,6-dihydropyridin-3-yl)benzyl)-1,4-diazepan-1-yl)methyl)-1-methyl-1,2,3,4-tetrahydroisoquinoline-2-carbonyl)-4,4-dimethylpent-2-enenitrile] | < 25% | 10 to 25 nM | 70 to 75% | 70 to 75% | 10 to 25 nM
